This is an account of results in EP3315495A1, “N,N' -[…], N,N' -DIAR[…] N,N' -DIARY[…] FOR USE IN TREATMENT AND PREVENTION OF INFLAMMATORY DISEASE” (Universität Innsbruck, priority 2016, dated 2018).

pIC50: −log10 of the molar value. Read-outs that look alike come from different tables or passages of the source.

For assay [1], the system named is 5-LOX product formation in PMNL. Briefly: 5-LOX product formation in PMNL stimulated with A23187 (cell-based). More on the design: species or system human. The following applies: for inhibition at 10 µM: read-out: Effect on 5-LOX product formation in PMNL, % inhibition; for pIC50: read-out: Effect on 5-LOX product formation in PMNL, IC50. Here is the method:
Briefly, first a cell-based assay allows to determine the inhibition of the 5-LOX product biosynthesis. The cell suspension contained human neutrophils (PMNL) or monocytes, wherein the cells were isolated from buffy coats obtained from healthy donors pooled by gender. An aliquot cell suspension was incubated with the candidate compound for 15 min at 37 °C. The cells are treated with calcium ionophore A23187 to stimulate 5-LOX product formation for further 10 min (37 °C), optionally in presence of various concentrations of AA. The reaction was stopped with 1 mL methanol on ice.
(§1) In both assays, product quantification was conducted with RP-HPLC and UV detection after solid phase extraction and addition of 200 ng prostaglandin B1 as internal standard.

Assay [2] has as its target T1, sEH (Homo sapiens, UniProt P34913).
T1 sequence (P34913 1-555): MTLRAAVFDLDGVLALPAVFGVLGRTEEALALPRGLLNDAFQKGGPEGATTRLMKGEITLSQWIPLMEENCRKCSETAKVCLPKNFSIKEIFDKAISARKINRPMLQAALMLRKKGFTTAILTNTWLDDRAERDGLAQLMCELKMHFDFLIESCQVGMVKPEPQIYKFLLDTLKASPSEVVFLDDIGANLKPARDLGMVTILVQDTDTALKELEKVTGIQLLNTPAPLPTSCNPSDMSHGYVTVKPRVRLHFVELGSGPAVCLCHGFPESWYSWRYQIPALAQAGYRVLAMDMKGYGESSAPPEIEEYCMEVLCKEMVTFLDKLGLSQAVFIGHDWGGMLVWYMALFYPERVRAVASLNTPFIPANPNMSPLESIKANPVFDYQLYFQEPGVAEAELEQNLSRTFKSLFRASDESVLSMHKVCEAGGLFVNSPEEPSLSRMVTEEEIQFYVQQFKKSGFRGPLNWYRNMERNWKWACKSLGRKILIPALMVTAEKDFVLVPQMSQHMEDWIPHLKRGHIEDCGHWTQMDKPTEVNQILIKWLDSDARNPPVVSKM
Briefly: biochemical. The following applies: read-out: Effect on sEH activity, % inhibition.
Procedure: (§2) In brief, sEH was expressed in transfected Sf9-cells. Isolation of sEH from the cell pellet was conducted with a benzylthiosepharose matrix. […] The reaction was stopped with ZnSO4 (0.2 M) after 60 min incubation. […] Inhibitors were tested for self fluorescence. Positive controls were AUDA (12-(3-adamantan-1-yl-ureido)dodecanacid) and DCU (N,N'-dicyclohexylurea) at 10 µM.

A further assay concerns the target T2, FLAP (Homo sapiens, UniProt P20292).
T2 sequence (P20292 1-161): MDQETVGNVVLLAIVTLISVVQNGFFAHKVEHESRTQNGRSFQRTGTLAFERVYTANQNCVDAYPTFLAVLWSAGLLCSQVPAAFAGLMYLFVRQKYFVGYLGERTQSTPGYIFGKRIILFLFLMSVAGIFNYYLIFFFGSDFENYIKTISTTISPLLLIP
Particulars: active = inhibition of product formation in cells without 5-LOX activity in the cell-free assay.

Another assay concerns the target T3, isolated 5-LOX (Homo sapiens, UniProt P09917).
T3 construct: made in house; host or cells: E. coli
T3 sequence (P09917 1-674): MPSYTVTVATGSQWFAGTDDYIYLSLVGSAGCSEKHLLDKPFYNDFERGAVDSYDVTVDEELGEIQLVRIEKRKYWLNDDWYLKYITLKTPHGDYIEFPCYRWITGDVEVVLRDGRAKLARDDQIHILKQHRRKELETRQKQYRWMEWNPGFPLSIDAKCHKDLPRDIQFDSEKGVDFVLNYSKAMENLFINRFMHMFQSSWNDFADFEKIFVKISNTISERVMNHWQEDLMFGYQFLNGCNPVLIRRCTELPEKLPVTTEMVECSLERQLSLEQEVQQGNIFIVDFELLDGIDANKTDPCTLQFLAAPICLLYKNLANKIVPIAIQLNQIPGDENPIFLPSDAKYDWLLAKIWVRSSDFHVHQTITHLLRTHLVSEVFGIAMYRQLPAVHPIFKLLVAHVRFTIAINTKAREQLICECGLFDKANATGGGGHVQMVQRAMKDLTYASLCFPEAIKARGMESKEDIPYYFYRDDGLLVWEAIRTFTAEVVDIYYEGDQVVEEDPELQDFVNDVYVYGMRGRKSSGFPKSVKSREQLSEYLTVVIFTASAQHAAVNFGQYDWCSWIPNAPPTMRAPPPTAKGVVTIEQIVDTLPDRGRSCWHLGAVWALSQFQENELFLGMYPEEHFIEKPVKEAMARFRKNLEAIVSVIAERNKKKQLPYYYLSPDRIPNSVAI
Briefly: FLAP-independent cell-free enzymatic assay with isolated recombinant 5-LOX. The format is biochemical. Particulars: for inhibition at 10 µM: read-out: Effect on isolated 5-LOX, % inhibition. Here is the method:
as §1

Assay [3] deals with T1, sEH. The following applies: at 0.1 µM.
Procedure: as §2

Consider `Cc1cc(OCc2nc3ccccc3n2C(=O)OC(C)(C)C)ccc1NC(=S)Nc1ccc(Cl)c(Cl)c1` [EZ15, N-[4-(1-tert.-Butoxycarbonyl-1H-benzimidazol-2-ylmethoxy)-2-methylphenyl]-N'-(3,4-dichlorophenyl)-thiourea], for which the inhibition at 10 µM in assay [1] (Homo sapiens, PMNL, at 10 µM) is approximately 39%; on sEH [2], approximately 66%; on isolated 5-LOX (at 10 µM) it was approximately 33%. On FLAP, the “Effect on FLAP activity” value is “inactive”.

Turning to `Cc1cc(OCc2nc3ccccc3[nH]2)ccc1NC(=S)Nc1ccc(Cl)c(Cl)c1` [EZ17, N-[4-(1H-Benzimidazol-2ylmethoxy)-2-methylphenyl]-N'-(3,4-dichlorophenyl)-thiourea], in assay [1] (Homo sapiens, PMNL), the pIC50 is 6.09. For the same compound, the inhibition at 10 µM at sEH [2] was approximately 64%; at isolated 5-LOX (at 10 µM), 65%. Moreover, at FLAP, the “Effect on FLAP activity” value is listed as “active”.

As for `CC(C)(C)OC(=O)n1c(COc2ccc(NC(=O)Nc3ccc(Cl)c(Cl)c3)cc2)nc2ccccc21` [EZ18, N-[4-(1-tert.-Butoxycarbonyl-1H-benzimidazol-2-ylmethoxy)-phenyl]-N'-(3,4-dichlorophenyl)-urea], the inhibition at 10 µM is approximately 40% in assay [1] (Homo sapiens, PMNL, at 10 µM) and approximately 22% on isolated 5-LOX (at 10 µM). For the same compound, the inhibition at 0.1 µM on sEH [2] was approximately 67%.

On to `O=C(Nc1ccc(OCc2nc3ccccc3[nH]2)cc1)Nc1ccc(Cl)c(Cl)c1` [EZ19, N-[4-(1-H-Benzimidazol-2-ylmethoxy)-phenyl]-N'-(3,4-dichlorophenyl)-urea], for which the pIC50 in assay [1] was 6.26. The “Effect on FLAP activity” value at FLAP is recorded as “active”. In addition, the “Effect on sEH activity, % inhibition” value on sEH [3] is recorded as “∼52 % inhibition at 0.1 µM”. Besides, the “Effect on isolated 5-LOX, % inhibition” value at isolated 5-LOX (at 10 µM) is “∼33 % inhibitio n at 10 µM”.

With `CC(C)(C)OC(=O)n1c(COc2ccc(NC(=S)Nc3ccc(Cl)c(Cl)c3)cc2)nc2ccccc21` [EZ20, N-[4-(1-tert.-Butoxycarbonyl-1H-benzimidazol-2-ylmethoxy)-phenyl]-N'-(3,4-dichlorophenyl)-thiourea], the inhibition at 10 µM in assay [1] (Homo sapiens, PMNL) is -65%; at isolated 5-LOX, approximately 39%. In addition, at sEH [2], the inhibition at 0.1 µM is approximately 39%. Moreover, at FLAP, the “Effect on FLAP activity” value was “inactive”.

Turning to `S=C(Nc1ccc(OCc2nc3ccccc3[nH]2)cc1)Nc1ccc(Cl)c(Cl)c1` [EZ21, N-[4-(1-H-Benzimidazol-2-ylmethoxy)-phenyl]-N'-(3,4-dichlorophenyl)-thiourea], the pIC50 in assay [1] (Homo sapiens, PMNL) is 6.16. Further, the inhibition at 10 µM at sEH [2] is approximately 54%; at isolated 5-LOX (at 10 µM), 87%.
